Measured values published in patent publication US20110039763A1, “TARGETED ANTIMICROBIAL MOIETIES” (C3 JIAN, INC., priority 2009, published 2011).

Key:
[1] = test system: microorganisms; test: Morphology, biofilm and growth disrupting peptides (Table 5); assay type: cell-based; set-up: key: A: Peptide aggregates; B: Less hyphal formation; Clumps; Diffuse clumps and small polyps; F: Diffuse growth; H: Thin; I: Growth inhibition; Microcolony formation; Rippled; Small polyps; Thick; W: Halo formation on top, microlonies on bottom
Excerpt: In certain embodiments peptides that induce alterations in phenotype or other biological activities can also be used as antimicrobial effector moieties.

[2] = test system: microorganisms; test: Peptide activities: targeting/binding, antimicrobial, growth or phenotype altering (Tables 7, 8); assay type: cell-based; settings: peptides having multiple activities

| Substance | Organism, effect: E. faecalis ([1]; E. faecalis) | Organism, effect: MRSA ([1]; MRSA) | Organism, effect: S. epidermidis ([1]; S. epidermidis) | Organism, effect: S. pneumoniae ([1]; S. pneumoniae) | Activities [2] | Organism, effect: E. coli ([1]; E. coli) | Organism, effect: C. jejuni ([1]; C. jejuni) | Organism, effect: P. aeruginosa ([1]; P. aeruginosa) | Organism, effect ([1]; C. jejuni) | Organism, effect ([1]; E. faecalis) | Organism, effect ([1]; MRSA) | Organism, effect ([1]; S. epidermidis) | Organism, effect ([1]; S. pneumoniae) | Organism, effect ([1]; E. coli) | Organism, effect ([1]; P. aeruginosa) |
| --- | --- | --- | --- | --- | --- | --- | --- | --- | --- | --- | --- | --- | --- | --- | --- |
| PF-407: peptide having multiple activities (chain 1 KPKNKKEKTVISYEKLLSMY; chain 2 KPKNKKEKTVISYEKLLSMY; Peptide with targeting and/or antimicrobial activity) | E. faecalis (R) | MRSA (C) | S. epidermidis (M) | S. pneumoniae (R) | G B | – | – | – | – | – | – | – | – | – | – |
| PF-410: peptide having multiple activities (chain 1 FALELIALCRNLFIVYFP; chain 2 FALELIALCRNLFIVYFP; Peptide with targeting and/or antimicrobial activity) | E. faecalis (C) | MRSA (M) | S. epidermidis (C) | – | G B | E. coli (S) | – | – | – | – | – | – | – | – | – |
| PF-411: peptide having multiple activities (chain 1 WVAVAILLNIALQTQLT; chain 2 WVAVAILLNIALQTQLT; Peptide with targeting and/or antimicrobial activity) | E. faecalis (D) | MRSA (D) | S. epidermidis (C) | S. pneumoniae (D) | G B | E. coli (C) | C. jejuni (D) | P. aeruginosa (A) | – | – | – | – | – | – | – |
| PF-418: peptide having multiple activities (chain 1 FFLVHFYIRKRKGKVSIFLNYF; chain 2 FFLVHFYIRKRKGKVSIFLNYF; Peptide with targeting and/or antimicrobial activity) | E. faecalis (D) | MRSA (D) | S. epidermidis (M) | S. pneumoniae (D) | G B | E. coli (C) | C. jejuni (D) | – | – | – | – | – | – | – | – |
| PF-431: peptide having multiple activities (chain 1 VAYAAICWW; chain 2 VAYAAICWW; Peptide with targeting and/or antimicrobial activity) | – | – | – | – | G B | – | – | – | C. jejuni (R) | E. faecalis (R) | MRSA (C) | S. epidermidis (M) | S. pneumoniae (R) | – | – |
| PF-432: peptide having multiple activities (chain 1 FNGDSEFFLCIAF; chain 2 FNGDSEFFLCIAF; Peptide with targeting and/or antimicrobial activity) | – | – | – | – | G B | – | – | – | C. jejuni (D) | E. faecalis (D) | MRSA (M) | S. epidermidis (M) | S. pneumoniae (D) | E. coli (R) | P. aeruginosa (A) |
| PF-439: peptide having multiple activities (chain 1 RVLVLKKFHGIMDGNRNVAVFFVGQ; chain 2 RVLVLKKFHGIMDGNRNVAVFFVGQ; Peptide with targeting and/or antimicrobial activity) | – | – | – | – | G B | – | – | – | – | E. faecalis (C) | MRSA (M) | S. epidermidis (C) | S. pneumoniae (R) | E. coli (R) | – |
| PF-440: peptide having multiple activities (MFIISPDLFNIAVILYILFFIHDILLLILS; Peptide with targeting and/or antimicrobial activity) | – | – | – | – | G B | – | – | – | – | E. faecalis (C) | MRSA (C) | S. epidermidis (C) | S. pneumoniae (R) | E. coli (R) | – |
| PF-443: peptide having multiple activities (KLLYFFNYFENLQQVHLLVQL; Peptide with targeting and/or antimicrobial activity) | – | – | – | – | G B | – | – | – | – | – | MRSA (C) | – | S. pneumoniae (C) | E. coli (R) | – |
| PF-450: peptide having multiple activities (HRNLIILQRTIFI; Peptide with targeting and/or antimicrobial activity) | – | – | – | – | G B | – | – | – | – | E. faecalis (C) | MRSA (C) | – | S. pneumoniae (C) | – | – |
| PF-451: peptide having multiple activities (MVNYIIGSYMLYREQNNNEALRKFDITLAM; Peptide with targeting and/or antimicrobial activity) | – | – | – | – | G B | – | – | – | – | E. faecalis (C) | MRSA (C) | S. epidermidis (C) | S. pneumoniae (C) | E. coli (R) | – |
| PF-454: peptide having multiple activities (MSVFVPVTNIFMFIMSPIFNVNLLHFKVYI; Peptide with targeting and/or antimicrobial activity) | – | – | – | – | G B | – | – | – | – | E. faecalis (C) | MRSA (C) | S. epidermidis (C) | S. pneumoniae (R) | E. coli (R) | P. aeruginosa (H) |
| PF-458: peptide having multiple activities (ISLIIFIMLFVVALFKCITNYKHQS; Peptide with targeting and/or antimicrobial activity) | – | – | – | – | G B | – | – | – | – | – | MRSA (M) | – | S. pneumoniae (M) | – | P. aeruginosa (H) |
| PF-460: peptide having multiple activities (MEHVLPFQNTPPNIVIIYKDFTHLKSITFS; Peptide with targeting and/or antimicrobial activity) | – | – | – | – | G B | – | – | – | – | E. faecalis (C) | MRSA (C) | S. epidermidis (C) | S. pneumoniae (R) | E. coli (H) | – |
| PF-465: peptide having multiple activities (KPVGKALEEIADGKIEPVVPKEYLG; Peptide with targeting and/or antimicrobial activity) | – | – | – | – | G B | – | – | – | – | – | – | – | S. pneumoniae (H) | – | – |
| PF-469: peptide having multiple activities (YKVNYNNIDNHFNTLRH; Peptide with targeting and/or antimicrobial activity) | – | – | – | – | G B | – | – | – | C. jejuni (D) | E. faecalis (D) | MRSA (D) | S. epidermidis (D) | S. pneumoniae (D) | E. coli (C) | – |
